Molecular target: T1, FSHR (Homo sapiens, UniProt P23945)
T1 construct: expressed in transfected cells; host or cells: CHO (Cho-FSHR-LUC-1-1-43)
Experiment: EC50 of cyclic AMP production in CHO FSHR cells + EC20 FSH (Assay A)
Format: cell-based
Settings: Table 2; for EC50: CHO FSHR cells + EC20 FSH, read-out: Assay A EC50 of cyclic AMP production; for activation at 5 µM: 1 h, effect relative to maximum response of the FSH standard
Procedure, shortened: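 cAMP HTRF ratio (665/620 nm) read after 1 h, 37 °C exposure of CHO-FSHR cells to compound in presence of EC20 FSH ([…]) and IBMX 200 μM. Responses given relative to FSH standard maximum; EC50 derived.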

T1 sequence (P23945 18-695): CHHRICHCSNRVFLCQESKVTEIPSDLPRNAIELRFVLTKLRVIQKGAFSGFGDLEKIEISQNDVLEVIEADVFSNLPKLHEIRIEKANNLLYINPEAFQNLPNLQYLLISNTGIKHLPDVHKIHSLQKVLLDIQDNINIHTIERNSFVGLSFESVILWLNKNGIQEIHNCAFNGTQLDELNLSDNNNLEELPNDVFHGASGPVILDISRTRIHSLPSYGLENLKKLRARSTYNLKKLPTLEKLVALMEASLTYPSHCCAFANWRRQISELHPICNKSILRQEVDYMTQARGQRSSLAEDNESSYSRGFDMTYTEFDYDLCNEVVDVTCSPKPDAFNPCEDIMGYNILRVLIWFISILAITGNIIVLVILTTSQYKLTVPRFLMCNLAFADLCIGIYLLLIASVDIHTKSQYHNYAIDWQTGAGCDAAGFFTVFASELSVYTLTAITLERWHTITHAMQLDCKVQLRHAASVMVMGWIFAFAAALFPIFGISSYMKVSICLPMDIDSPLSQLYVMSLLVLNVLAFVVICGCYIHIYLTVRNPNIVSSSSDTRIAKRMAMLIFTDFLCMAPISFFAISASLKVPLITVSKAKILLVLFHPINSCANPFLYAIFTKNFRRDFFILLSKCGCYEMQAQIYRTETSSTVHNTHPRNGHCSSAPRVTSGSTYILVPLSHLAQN
T1 sequence (P01215 25-116 partner): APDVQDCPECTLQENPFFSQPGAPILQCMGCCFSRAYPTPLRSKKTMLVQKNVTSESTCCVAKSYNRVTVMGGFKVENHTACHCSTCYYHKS
T1 sequence (P01225 19-129 partner): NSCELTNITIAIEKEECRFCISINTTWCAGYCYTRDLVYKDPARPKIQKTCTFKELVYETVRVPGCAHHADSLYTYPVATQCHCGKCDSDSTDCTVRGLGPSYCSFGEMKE

Row | Structure (SMILES) | EC50 | activation at 5 µM
1 | Cc1ccccc1N1CCN(c2ccc(C(=O)NCCCN3C(=O)CN(C)C3=O)cc2NC(=O)c2coc(C3CC3)n2)CC1 [Compound 296] | 100 to 1000 nM | 
2 | Cc1ccccc1N1CCN(c2ccc(C(=O)NC3CCN(S(C)(=O)=O)CC3)cc2NC(=O)c2coc(C3CC3)n2)CC1 [Compound 297] | 100 to 1000 nM | 
3 | Cc1ccc(C(=O)Nc2cc(C(=O)NCCCN3CCCC3=O)ccc2N2CCN(c3c(C)cccc3C)CC2)o1 [Compound 298] | 1000 to 10000 nM | 
4 | Cc1nc(C(=O)Nc2cc(C(=O)NCCc3cnc[nH]3)ccc2N2CCN(c3ccccc3C)CC2)cs1 [Compound 301] | 1000 to 10000 nM | 
5 | Cc1ccccc1N1CCN(c2ccc(C(=O)NCCc3cnc[nH]3)cc2NC(=O)C2CC2)CC1 [Compound 302] | 1000 to 10000 nM | 
6 | Cc1ccccc1N1CCN(c2ccc(C(=O)NCCCN3CCCC3=O)cc2NC(=O)c2cc(C3CC3)on2)CC1 [Compound 308] | 100 to 1000 nM | 
7 | CCOC(=O)c1c[nH]nc1NC(=O)c1ccc(N2CCN(c3ccccc3C)CC2)c(NC(=O)c2coc(C3CC3)n2)c1 [Compound 314] |  | 38%
8 | Cc1ccccc1N1CCN(c2ccc(C(=O)NCCCN3CCCC3=O)cc2NC(=O)c2cc(C3CC3)nn2C)CC1 [Compound 315] |  | 47%
9 | Cc1ccccc1N1CCN(c2ccc(C(=O)NCCc3cn(C)cn3)cc2NC(=O)c2coc(C3CC3)n2)CC1 [Compound 317] | 100 to 1000 nM | 
10 | CC(=O)NCCCCNC(=O)c1ccc(N2CCN(c3ccccc3C)CC2)c(NC(=O)c2coc(C3CC3)n2)c1 [Compound 318] | 100 to 1000 nM | 
11 | Cc1ccccc1N1CCN(c2ccc(C(=O)NCCCN3CCOC3=O)cc2NC(=O)c2coc(C3CC3)n2)CC1 [Compound 321] | 100 to 1000 nM | 
12 | CCn1nc(C2CC2)cc1C(=O)Nc1cc(C(=O)NCCCN2CCCC2=O)ccc1N1CCN(c2ccccc2C)CC1 [Compound 324] | 1000 to 10000 nM | 
13 | Cc1ccccc1N1CCN(c2ccc(C(=O)NC3(c4cccc(C(N)=O)c4)CC3)cc2NC(=O)c2ccco2)CC1 [Compound 325] | 100 to 1000 nM | 
14 | Cc1ccccc1N1CCN(c2ccc(C(=O)NCc3cccc(CN(C)C(=O)OC(C)(C)C)c3)cc2NC(=O)c2ccco2)CC1 [Compound 326] | > 10000 nM | 
15 | Cc1ccccc1N1CCN(c2ccc(C(=O)NCCCN3C(=O)CCC3C)cc2NC(=O)c2coc(C3CC3)n2)CC1 (centres unmarked) [Compound 330] | 100 to 1000 nM | 
16 | Cc1ccccc1N1CCN(c2ccc(C(=O)NCCCN3CCN(C)C3=O)cc2NC(=O)c2coc(C3CC3)n2)CC1 [Compound 331] | < 100 nM | 
17 | Cc1ccccc1N1CCN(c2ccc(C(=O)NCCCN3C(=O)OCC3C)cc2NC(=O)c2coc(C3CC3)n2)CC1 (centres unmarked) [Compound 332] | 100 to 1000 nM | 
18 | Cc1ccccc1N1CCN(c2ccc(C(=O)NCCN3C(=O)CCC3=O)cc2NC(=O)c2coc(C3CC3)n2)CC1 [Compound 347] | > 10000 nM | 
19 | Cc1ccccc1N1CCN(c2ccc(C(=O)NCCCN3C(=O)[C@@H]4C=C[C@H]3C4)cc2NC(=O)c2coc(C3CC3)n2)CC1 [Compound 352] | 100 to 1000 nM | 
20 | Cc1ccccc1N1CCN(c2ccc(C(=O)NCCCN3C(=O)[C@@H]4CC[C@H]3C4)cc2NC(=O)c2coc(C3CC3)n2)CC1 [Compound 353] | 100 to 1000 nM | 

Row | Structure (SMILES) | EC50 | activation at 5 µM
21 | CC(=O)NCC(C)(C)CNC(=O)c1ccc(N2CCN(c3ccccc3C)CC2)c(NC(=O)c2coc(C3CC3)n2)c1 [Compound 355] | 100 to 1000 nM | 
22 | Cc1ccccc1N1CCN(c2ccc(C(=O)NCC(C)(C)CN3CCCC3=O)cc2NC(=O)c2coc(C3CC3)n2)CC1 [Compound 356] | 100 to 1000 nM | 
23 | Cc1ccccc1N1CCN(c2ccc(C(=O)NCCCN3C(=O)OCC3(C)C)cc2NC(=O)c2coc(C3CC3)n2)CC1 [Compound 358] | 100 to 1000 nM | 
24 | Cc1ccccc1N1CCN(c2ccc(C(=O)NCC3(C(N)=O)CC3)cc2NC(=O)c2coc(C3CC3)n2)CC1 [Compound 359] | 100 to 1000 nM | 
25 | CC(=O)N(C)CCCNC(=O)c1ccc(N2CCN(c3ccccc3C)CC2)c(NC(=O)c2coc(C3CC3)n2)c1 [Compound 360] | < 100 nM | 
26 | Cc1ccccc1N1CCN(c2ccc(C(=O)NCCCC(=O)CN(c3ccccc3)c3ccccc3)cc2NC(=O)c2coc(C3CC3)n2)CC1 [Compound 361] | 1000 to 10000 nM | 
27 | Cc1ccccc1N1CCN(c2ccc(C(=O)NCCCC(=O)NC3CCC3)cc2NC(=O)c2coc(C3CC3)n2)CC1 [Compound 363] | 100 to 1000 nM | 
28 | CCNC(=O)N(C)CCCNC(=O)c1ccc(N2CCN(c3ccccc3C)CC2)c(NC(=O)c2coc(C3CC3)n2)c1 [Compound 367] | 100 to 1000 nM | 
29 | Cc1ccc(C(=O)Nc2cc(C(=O)NCCCN3C(=O)OCC3(C)C)ccc2N2CCN(c3ccccc3C)CC2)o1 [Compound 369] | 1000 to 10000 nM | 
30 | Cc1ccccc1N1CCN(c2ccc(C(=O)NCCNC3CS(=O)(=O)CC3O)cc2NC(=O)c2ccco2)CC1 (centres unmarked) [Compound 371] | 100 to 1000 nM | 
31 | Cc1ccccc1N1CCN(c2ccc(C(=O)NCCCc3ccccc3Cl)cc2NC(=O)c2ccco2)CC1 [Compound 373] | 1000 to 10000 nM | 
32 | Cc1ccccc1N1CCN(c2ccc(C(=O)NCCCC3CCCC3)cc2NC(=O)c2ccco2)CC1 [Compound 375] | 100 to 1000 nM | 
33 | Cc1ccccc1N1CCN(c2ccc(C(=O)NCC(=O)NC3CCS(=O)(=O)C3)cc2NC(=O)c2ccco2)CC1 (centres unmarked) [Compound 376] | 100 to 1000 nM | 
34 | Cc1ccccc1N1CCN(c2ccc(C(=O)NCCCC3CCS(=O)(=O)C3)cc2NC(=O)c2ccco2)CC1 (centres unmarked) [Compound 377] | 100 to 1000 nM | 
35 | Cc1ccccc1N1CCN(c2ccc(C(=O)NCCCN3C(=O)C(=O)N(C)C3=O)cc2NC(=O)c2ccco2)CC1 [Compound 379] | 100 to 1000 nM | 
36 | Cc1ccccc1N1CCN(c2ccc(C(=O)NCC3C[C@@H]4CC[C@H]3C4)cc2NC(=O)c2ccco2)CC1 (some centres unmarked) [Compound 380] | 100 to 1000 nM | 
37 | Cc1ccccc1N1CCN(c2ccc(C(=O)NCc3cccc(-c4nccs4)c3)cc2NC(=O)c2coc(C3CC3)n2)CC1 [Compound 382] | 100 to 1000 nM | 
38 | Cc1ccccc1N1CCN(c2ccc(C(=O)NCCCN3CCCC3=O)cc2NC(=O)c2cnc(C3CC3)s2)CC1 [Compound 383] | 100 to 1000 nM | 
39 | Cc1ccccc1N1CCN(c2ccc(C(=O)NCCCN3C(=O)CCC3=O)cc2NC(=O)c2ccc(Br)o2)CC1 [Compound 384] | 100 to 1000 nM | 
40 | Cc1ccccc1N1CCN(c2ccc(C(=O)NCCCN3CCOC3=O)cc2NC(=O)c2ccc(Br)o2)CC1 [Compound 385] | 100 to 1000 nM | 

Results, then the compound that gave them:

Row | EC50 | activation at 5 µM | Structure (SMILES)
41 | 1000 to 10000 nM |  | Cc1cccc(C)c1N1CCN(c2ccc(C(=O)NCCCN3CCCC3=O)cc2NC(=O)c2coc(C3CC3)n2)CC1 [Compound 299]
42 | 1000 to 10000 nM |  | Cc1ccc(C(=O)Nc2cc(C(=O)NCCCO)ccc2N2CCN(c3ccccc3C)CC2)o1 [Compound 303]
43 | < 100 nM |  | Cc1ccccc1N1CCN(c2ccc(C(=O)NCCN3C(=O)CCC3=O)cc2NC(=O)c2ccco2)CC1 [Compound 305]
44 | 100 to 1000 nM |  | Cc1ccccc1N1CCN(c2ccc(C(=O)N[C@H]3O[C@@H](CO)[C@@H]4OC(C)(C)O[C@@H]43)cc2NC(=O)c2coc(C3CC3)n2)CC1 [Compound 309]
45 | 100 to 1000 nM |  | Cc1cc(F)ccc1N1CCN(c2ccc(C(=O)NCCCN3CCCC3=O)cc2NC(=O)c2coc(C3CC3)n2)CC1 [Compound 312]
46 | 100 to 1000 nM |  | O=C(NCCCN1CCCC1=O)c1ccc(N2CCN(c3ccccc3Br)CC2)c(NC(=O)c2coc(C3CC3)n2)c1 [Compound 313]
47 | 100 to 1000 nM |  | CNCc1cccc(CNC(=O)c2ccc(N3CCN(c4ccccc4C)CC3)c(NC(=O)c3ccco3)c2)c1 [Compound 323]
48 | 100 to 1000 nM |  | Cc1ccccc1N1CCN(c2ccc(C(=O)NCc3cccc(CN)c3)cc2NC(=O)c2ccco2)CC1 [Compound 327]
49 | 100 to 1000 nM |  | Cc1ccccc1N1CCN(c2ccc(C(=O)NCCC(C)N3CCCC3=O)cc2NC(=O)c2coc(C3CC3)n2)CC1 (centres unmarked) [Compound 333]
50 | 100 to 1000 nM |  | Cc1ccc(C(=O)Nc2cc(C(=O)NCCCc3cn[nH]c3)ccc2N2CCN(c3ccccc3C)CC2)o1 [Compound 334]
51 | 1000 to 10000 nM |  | Cc1ccccc1N1CCN(c2ccc(C(=O)N[C@@H](CO)c3ccccc3)cc2NC(=O)c2coc(C3CC3)n2)CC1 [Compound 343]
52 | 1000 to 10000 nM |  | Cc1ccccc1N1CCN(c2ccc(C(=O)NC3CCN(C4CCCC4)C3)cc2NC(=O)c2ccco2)CC1 (centres unmarked) [Compound 345]
53 | 100 to 1000 nM |  | Cc1ccccc1N1CCN(c2ccc(C(=O)NC(C)c3ccccc3)cc2NC(=O)c2coc(C3CC3)n2)CC1 (centres unmarked) [Compound 346]
54 | 100 to 1000 nM |  | Cc1ccccc1N1CCN(c2ccc(C(=O)NCc3cccc(CN(C)C)c3)cc2NC(=O)c2coc(C3CC3)n2)CC1 [Compound 348]
55 | 100 to 1000 nM |  | Cc1ccccc1N1CCN(c2ccc(C(=O)NCCN3CCOC3=O)cc2NC(=O)c2coc(C3CC3)n2)CC1 [Compound 350]
56 | 100 to 1000 nM |  | Cc1ccccc1N1CCN(c2ccc(C(=O)NCCCC(=O)O)cc2NC(=O)c2coc(C3CC3)n2)CC1 [Compound 351]
57 | 100 to 1000 nM |  | Cc1ccccc1N1CCN(c2ccc(C(=O)NCCCN3C(=O)CCC3(C)C)cc2NC(=O)c2coc(C3CC3)n2)CC1 [Compound 354]
58 | 100 to 1000 nM |  | Cc1ccccc1N1CCN(c2ccc(C(=O)NCCCN3C(=O)OC[C@H]3CO)cc2NC(=O)c2coc(C3CC3)n2)CC1 [Compound 357]
59 | 100 to 1000 nM |  | Cc1ccccc1N1CCN(c2ccc(C(=O)NCCCN3CCC(F)(F)C3)cc2NC(=O)c2coc(C3CC3)n2)CC1 [Compound 362]
60 | 100 to 1000 nM |  | Cc1ccccc1N1CCN(c2ccc(C(=O)NC(C)CCN3CCCC3=O)cc2NC(=O)c2coc(C3CC3)n2)CC1 (centres unmarked) [Compound 364]
61 | 100 to 1000 nM |  | Cc1ccccc1N1CCN(c2ccc(C(=O)NCCCN3CC(C)OC3=O)cc2NC(=O)c2coc(C3CC3)n2)CC1 (centres unmarked) [Compound 366]
62 | 100 to 1000 nM |  | CC(=O)NCCCNC(=O)c1ccc(N2CCN(c3ccccc3C)CC2)c(NC(=O)c2coc(C3CC3)n2)c1 [Compound 368]
63 | 1000 to 10000 nM |  | Cc1ccc(C(=O)Nc2cc(C(=O)NCCCN3CC(C)OC3=O)ccc2N2CCN(c3ccccc3C)CC2)o1 (centres unmarked) [Compound 370]
64 | 100 to 1000 nM |  | Cc1ccccc1N1CCN(c2ccc(C(=O)NCCCc3ccccc3O)cc2NC(=O)c2ccco2)CC1 [Compound 372]
65 | 100 to 1000 nM |  | Cc1ccccc1N1CCN(c2ccc(C(=O)NCCCn3nccc3C3CC3)cc2NC(=O)c2ccco2)CC1 [Compound 374]

From patent US9938262B2, “Benzamides” (Merck Patent GmbH, priority 2011, dated 2018)
